# A melting point compilation (Tetko et al.; mined from patent text by program, amines drawn as free bases though some values may be those of a salt)
row,Compound,melting point
1,COC(=O)c1cccc(COc2cc(Cl)cnc2N)c1,148 to 150 °C
2,CCC1(CC)Nc2ccccc2-c2c([N+](=O)[O-])cnn21,132 to 134 °C
3,C[C@@H]1Cc2ccsc2[C@H](C)N1CCNC(=O)c1ccccn1 (relative stereo),116 to 120 °C
4,Nc1ccc2c(c1)C(=O)N(CCO)CO2,94 to 96 °C
5,O=C(Nc1ccc(Cl)cc1)O[C@@H]1CN=C(c2ccccc2)O[C@H]1c1ccccc1 (racemic),124 °C
6,N#CC(C#N)=C1N(CCCN2CCCCC2)CCN1CCN1CCCCC1,88 to 89 °C
7,C[C@]12CC[C@H]3[C@@H](CCC4=CC(=O)CC[C@@]43COC(=O)C34CC5CC(CC(C5)C3)C4)[C@@H]1CCC2=O,161 to 163 °C
8,O=C1N(Cc2cn(C(c3ccccc3)(c3ccccc3)c3ccccc3)cn2)CCN1c1cccc(Cl)c1,162 to 166 °C
9,CCc1nc(C)c(CC(=O)N(CC)CC)c(=O)n1Cc1ccc(-c2ccccc2-c2nnn[nH]2)cc1,125 to 131 °C
10,CCOC(=O)c1cn(C)nc1Nc1ccc(C(F)(F)F)cc1N,162 °C
11,COCCN(C)CCc1c(-c2ccc(N)cc2)sc2c1c(=O)n(-c1ccc3c(c1)OCO3)c(=O)n2Cc1c(F)cccc1F,200 to 202 °C
12,O=S(=O)(c1ccccc1)S(=O)(=O)c1ccccc1,142 to 144 °C
13,Cc1noc(NS(=O)(=O)c2cccc3c(NC(=O)C(C)C)cccc23)c1C,177 to 180 °C
14,Nc1sc2c(c1C(=O)c1cc3ccccc3o1)CCCC2,86 to 89 °C
15,COc1ccc2c(c1)CCN1C(=O)[C@H]3CCCN(S(C)(=O)=O)[C@H]3C[C@@H]21,138 to 140 °C
16,Cc1cc2[nH]c(=O)c(=O)[nH]c2cc1Cl,> 330 °C
17,OCc1ccc(-c2cccnc2)s1,89 to 90 °C
18,CCCCN(CCCC)CCCOc1ccc(-c2cn3cccc(C)c3n2)c(C)c1,78 to 81 °C
19,COc1cc2c(cc1OC)C(C(C#N)SCCCO)=NCC2 (stereo unspecified),155 to 156 °C
20,CN(Cc1ccccc1)Cc1nc(-c2ccc(-c3ccccc3)cc2)c[nH]1,106 to 108 °C
21,CCc1c(C)cc(C#N)c(N)c1C#N,121 to 123 °C

row,Compound,melting point
1,CC(C)c1ccccc1N1/C(=N\N=C/c2ccc(-c3ncn(-c4ccc(OC(F)(F)F)cc4)n3)cc2)SCC1(C)O (stereo unspecified),114 to 116 °C
2,Cn1nc(C(F)(F)F)c(CS(=O)(=O)C2=NOC(C)(C)C2)c1C#N,105 to 108 °C
3,O=C(OCc1ccccc1)C(C(=O)OCc1ccccc1)n1cccc1,48.5 to 49 °C
4,N#Cc1c[nH]c2cc(N3CCC(N4CCCC4)CC3)c([N+](=O)[O-])cc2c1=O,232 to 235 °C
5,C[C@@H](SC(CO)CO)[C@](O)(Cn1cncn1)c1ccccc1F,121 to 123 °C
6,O=C(Nc1ccc(Oc2ccccc2)cc1)Nc1ccc(C(F)(F)F)cc1,211 to 213 °C
7,O=C(O)[C@@H]1CN(C(=O)N(c2ccccc2)c2cccc(Cl)c2)CCN1C(=O)N(c1ccccc1)c1cccc(Cl)c1,200 to 203 °C
8,CCCCC(CC)COc1ccc2c(c1)C(=O)c1ccc(OCC(CC)CCCC)cc1C2=O (stereo unspecified),49 to 51 °C
9,Cc1cc(C(=Cc2nnnn2C)c2ccc(F)c(C)c2)ccc1F,138 to 139 °C
10,O=[N+]([O-])c1cc(F)ccc1NC1CCCCC1,93 °C
11,CC1(C)CCC(C)(C)c2cc(-c3cc(-c4ccc(C(=O)O)cc4O)ccc3-c3ccccc3)ccc21,183 to 185 °C
12,COc1cc2cc(C3CCCC3)sc2c(Cl)c1Cl,59.5 to 60 °C
13,CC(=O)NC1CCC(CNc2nc3c(s2)CCOc2ccccc2-3)CC1 (stereo unspecified),69 to 72 °C
14,O=C1OC(=O)c2cscc21,147 to 149 °C
15,NS(=O)(=O)c1ccc(F)c(C(O)CCl)c1 (stereo unspecified),112 °C
16,CCn1c(C(F)(F)F)n[nH]c1=S,93 °C
17,CCCOc1ccc(/C=C/C(=O)O)cc1-c1nc2c(CCC)nn(C)c2c(=O)[nH]1,229 to 230 °C
18,Cc1ccc([N+](=O)[O-])cc1Nc1nccc(-c2cncc(Br)c2)n1,206 to 208 °C
19,Cc1ccc(C)n1Nc1ccc(N2CCSCC2)nn1,203 °C
20,COc1ccc(C2=NNC(=O)[C@H]3CCCC[C@@H]23)cc1OC (relative stereo),143 to 146 °C
21,CCOC[C@]1(OC)CC[C@H]2[C@@H]3CCC4=CC(=O)CCC4=C3[C@@H](c3ccc(C(C)=O)cc3)C[C@@]21C,134 to 137 °C

row,Compound,melting point
1,CC1(C)CCC(C)(C)c2cc3[nH]c(SCc4ccccn4)nc3cc21,199 to 200 °C
2,O=c1cc(C(F)(F)F)[nH]c(=O)n1-c1cc([N+](=O)[O-])c(Cl)cc1F,204 °C
3,CCCCCCCCC1(COc2ccc(N)cc2)CCc2c(C)c(OC(C)=O)c(C)c(C)c2O1 (stereo unspecified),112 to 114 °C
4,CCc1ccc(S(=O)(=O)NC(C)(C)C)o1,71 to 72 °C
5,O=C(OCC(Cn1cnc2c(Cl)nc3ccccc3c21)OC(=O)c1ccccc1)c1ccccc1 (stereo unspecified),162 to 165 °C
6,O=C1CCC(c2ccccc2)(c2ccccc2)[C@@H]2CN(C(=O)Cc3ccccc3)C[C@H]12 (racemic),173 °C
7,CCn1cc(C(=O)O)c(=O)c2cc(F)c(N3CCN(S(=O)(=O)c4ccc(F)cc4)CC3)c(F)c21,243 to 244 °C
8,CCCc1c(OCCCCCOc2ccc3oc(C(=O)O)cc3c2)ccc2c1OCCC2=O,192 to 195 °C
9,CC(C)(NCCCn1ccnc1)c1ccc(-c2ccc(OCc3ccccc3)cc2)cc1,93 to 95 °C
10,FC(F)(F)c1cc(Cl)nc2[nH]ncc12,112 °C
11,CCCOc1ccc(S(=O)(=O)N2CC[C@@H](N(C)C)C2)cc1-c1nc2cc3ncn(Cc4ccc(F)cc4)c3cc2c(=O)[nH]1,223 to 225 °C
12,CCOC(=O)C=Cc1c(N)nc(C)c(NC(C)=O)c1C,204 to 205 °C
13,CC12CCCc3cc(Nc4ncc(C(=O)O)cn4)cc(c31)CCC2,> 300 °C
14,COc1cccc([C@H]2O[C@H](CC(=O)NCCCOc3ccc(CC(=O)O)cc3)C(=O)N(CC(C)(C)CO)c3ccc(Cl)cc32)c1OC,125 to 128 °C
15,Cc1c(-c2cc(CN(C)C)ccc2F)sc2nc(N)[nH]c(=O)c12,230 to 250 °C
16,CC(C)n1nc(-c2cc(C(=O)NCc3ccccc3)cnc2-c2ccccc2)ccc1=O,205 to 206 °C
17,COc1ccc2sc(C(N)=O)c(SCC(=O)O)c2c1,126 to 127 °C
18,O=C(CCCc1ccccc1)N[C@H](Cc1cccc(C(F)(F)F)c1)[C@@H](O)c1ccc(F)cc1 (racemic),110 to 111 °C
19,COC(=O)c1cc2nccnc2cc1N,180 to 182 °C
20,CCCc1nn(-c2ccc(C(F)(F)F)cn2)cc1CCCOc1ccc(CC(=O)O)c(C)c1,134 to 135 °C
21,CC(C)(C)C(=O)NCCCN(CCCNC(=O)C(C)(C)C)c1ccccc1,72 °C

# Results, then the molecule that gave them:
row,melting point,Compound
1,76 °C,CCOC(=O)C(CC)CCc1cc(-c2ccccc2)nc2ccccc12 (stereo unspecified)
2,205 to 207 °C,COc1ccc(-c2cc(=O)c3c(O)c(I)c(OC)cc3o2)cc1
3,173 to 174 °C,NC(=O)N(O)CC#Cc1ccc(F)c(C2=N[C@H](c3ccccc3)CO2)c1
4,167 to 168 °C,COC(=O)c1ccc(CN2CCc3ccc(S(=O)(=O)Nc4cccc(Cl)c4)cc3C2)o1
5,190 °C,Cc1ccc2c(c1)c1cc(C(=O)c3ccccc3C(=O)O)ccc1n2CCC#N
6,97 to 99 °C,O=S(=O)(Nc1cc(O)ccc1Oc1ccccc1)C(F)(F)F
7,150 °C,CN(C)Cc1c(-c2ccccc2)oc2c(CO)cccc2c1=O
8,119 to 121 °C,COC(=O)c1ccc(OCc2ccc(Cl)cc2)cc1O
9,137 to 139 °C,NC(=O)c1ccc(C(Cc2ccc(F)cc2)C(=O)Nc2nc3ccccc3o2)cc1 (stereo unspecified)
10,78 to 80 °C,CC1(c2ccc(OCc3ccccc3)c(C=O)c2)OCCO1
11,160 to 161 °C,CCOC(=O)C1CCNCC1c1nc2cc(-c3ccc(OC)cc3)nnc2c2ccccc12 (stereo unspecified)
12,134 to 135 °C,O=C1c2ccccc2C(=O)N1CCc1ccc(C(F)(F)F)cc1
13,144 to 146 °C,O=C(O)Cc1c(Cl)nc(-c2ccccc2)n1Cc1ccccc1F
14,150 to 152 °C,CS(=O)(=O)c1cccc(/C=C/C2=CCN(Cc3ccccc3)CC2)c1
15,174 to 175 °C,COc1cc(NC(=O)NS(=O)(=O)c2ccccc2C)nc(OC)n1
16,88 to 89 °C,Fc1ccc(C(F)(F)F)cc1-c1cccn2nc(Cl)nc12
17,188 to 192 °C,COc1cc2ccoc2cc1N1CCN(CC2Cc3ccccc3C2)CC1

row,melting point,Compound
1,184 to 185 °C,COc1cc(COc2nn(-c3ccccc3)cc2/C=C/C#N)ccc1OCc1nc(-c2ccccc2)oc1C
2,132 °C,CCCc1c(OCCCOc2ccccc2)ccc2c1OC(CCC(=O)O)(CCC(=O)O)CC2O (stereo unspecified)
3,153 to 155 °C,O=C(NCc1cccnc1)c1ccnc(N2CCN(Cc3ccc(F)cc3)C2=O)c1
4,154 °C,CC(C)(C)Cc1ccc(C(=O)c2ccccc2C(=O)O)cc1
5,120 to 125 °C,O=C1C(=Cc2ccccc2)c2ccccc2N1C1=NCCS1
6,153 to 154 °C,O=C(Nc1ccc(Oc2ccnc(-n3ccnc3)n2)c2ccccc12)c1cc(F)cc(N2CCOCC2)c1
7,165 to 167 °C,O=C(O)Cc1ccccc1Oc1ccc(C(F)(F)F)cc1[N+](=O)[O-]
8,140 to 141 °C,COc1ccc(C2=NN(c3ccc(Cl)cc3)C(=O)[C@H]3CC=CC[C@@H]23)cc1OC (relative stereo)
9,206 °C,Cc1cc(-c2cccc(C3=Nc4ccc(-n5cccc5)cc4NC(=O)C3)c2)ccn1
10,133 to 134 °C,COC/C(=C1/SC(=O)NC1=O)c1cccc2ccccc12
11,206 to 207 °C,O=S(=O)(Nc1cccc(COc2cccc3cccnc23)c1)c1ccc(F)cc1
12,178 to 180 °C,Cc1cc(=O)[nH]c2ccc(OCCCN3CCN(Cc4ccc(F)cc4)CC3)cc12
13,91 to 93 °C,CC1CN(c2ccccc2)c2ccccc2N1 (stereo unspecified)
14,165 to 169 °C,O=C(Nc1ccc(Cl)c(C(F)(F)F)c1)c1ccccc1[N+](=O)[O-]
15,133 to 136 °C,COc1ccc(N2C(=O)Cc3ccccc32)cc1F
16,182 to 184 °C,Cc1ccc(C(=O)c2c(N)cc(C(=O)O)cc2OCc2ccccc2)cc1
